Source: patent US9656945B2, “3-acyl-ingenols II” (LEO LABORATORIES LIMITED, priority 2010, dated 2017)

Tests used:
Assay type in all cases: cell-based
[1] = test system: PMN's (polymorphonuclear leukocytes); test: Neutrophil oxidative burst assay; conditions: Leukocyte, 40 min, read-out: Neutrophil oxidative burst Rel EC50 range
Protocol: PMN's (polymorphonuclear leukocytes) were isolated and purified from fresh buffy coats by sequential sedimentation, density centrifugation and lysis of contaminating erythrocytes. Buffy coats were incubated with 2% methocel for 30-45 min to differentially sediment red blood cells. The leukocyte-rich supernatant was transferred to lymphoprep tubes to remove mononuclear cells by density centrifugation (400×g, 30 min). The pellet was resuspended and any remaining erythrocytes lysed using 0.2% NaCl for 30 sec before restoring isotonicity by the addition of 1.2% NaCl. This step was repeated until the cell pellet appears relatively free of red blood cells. Cells were resuspended in DPBS (Dulbecco's Phosphate Buffered Saline) (w.o. Ca^2+, Mg^2+) and the concentration adjusted to 1.4×10^6 cells/ml in HBSS (Hanks Balanced Salt solution) (w Ca^2+, Mg^2+) containing 0.1% BSA (Bovine Serum Albumin) and 5 mM glucose just prior to assay initiation. Titrated reference and test compounds were pre-mixed with HE (Hydroethidine) (10 μM final assay concentration) before addition to 96-well plates containing 2.5×10^5 cells. Following 40 min incubation at RT, changes in the respiratory burst was estimated by measuring fluorescence at 579 nm (excitation: 485 nm) using an Envision plate reader.
Test compound titration curves were fitted to a four-parameter sigmoidal curve after normalizing the effect of the test compound to the effect of the positive control (5×10^−7 M PEP0005). Rel EC50 denotes the concentration of test compound producing an effect that is midway between the fitted top and bottom. Abs EC50 is the concentration of test compound that provokes a response corresponding to 50% of the maximal effect associated with the positive control (5×10^−7 M PEP0005).

[2] = test system: Primary human epidermal keratinocytes, HeKa; test: HeKa cytokine release (IL-8) assay; conditions: 6 h, read-out: HeKa cytokine release (IL-8) Rel EC50 range
Protocol: Primary human epidermal keratinocytes, HeKa, were seeded (10.000 cells/well) in 96-well plates the day before the assay. Test compounds were diluted in DMSO (dimethyl sulfoxide) and further diluted in assay medium and pipetted into wells of 96 well-plates containing HeKa cells. The plates were incubated for 6 h at 37° C. in humidified air with 5% CO2. Plates are centrifuged briefly to spin down cells at 4° C., the supernatant was removed and analysed by Meso Scale Discovery (MSD) 4-spot cytokine assay (Pro-inflammatory II Ultra Sensitive kit, MSD, MD, USA). The MSD assay employs a sandwich immunoassay format where capture antibodies were coated in a patterned array on the bottom of the wells of a 4-Spot-Multi-MSD plate. Standard samples were incubated in the MULTI-SPOT plates as well, and the cytokine (IL-8) binds to its corresponding capture antibody spot. The cytokine level was quantitated on a SECTOR™ Imager using a cytokine-specific Detection Antibody labelled with MSD SULFO-TAG™ reagent.
Test compound titration curves were fitted to a four-parameter sigmoidal curve after normalizing the effect of the test compound to the effect of the positive control (1.5×10^−7 M PEP0005). Rel EC50 denotes the concentration of test compound producing an effect that is midway between the fitted top and bottom.

[3] = test system: HeLa cells (ATCC CCL-002); test: Necrosis assay; conditions: Homo sapiens, 0.5 h, read-out: HeLa necrosis EC50 range
Protocol: HeLa cells (ATCC CCL-002) were grown in minimal essential medium (Invitrogen catalog no. 42360) containing 10% fetal bovine serum, 100 IU/ml penicillin and 100 μg/ml streptomycin. 4,000-6,000 cells were seeded into 96-well black ViewPlates-plates, clear bottom, (Perkin Elmer) in 100 μl medium and incubated overnight. Compounds were dissolved and pre-diluted in DMSO in 96-well polypropylene plates (Greiner) in a concentration range of 15 μM to 600 μM. At the time of the experiment cell plates were placed on heating blocks at 37° C., medium was removed and 40 μl fresh, pre-warmed medium was added per well. Cells were incubated for 15 min before addition of compounds. In parallel, 3 μl of compounds were diluted with 197 μl growth medium on a Tecan freedom-EVO pipetting station using 250 μl/s pipetting speed, in order to ensure effective mixing of the highly concentrated compound solutions with the aqueous phase. These pre-dilution plates were then equilibrated on heating blocks at 37° C. for 10 min. 80 μl pre-diluted compound were transferred manually to the corresponding wells containing HeLa cells yielding compound concentrations of 10 μM to 400 μM. Control conditions were 1% DMSO in growth medium (100% viability) and 400 μM ingenol mebutate in growth medium (0% viability). Plates were incubated on the heating blocks at 37° C. for 30 min. At the end of the incubation 10 μl PrestoBlue reagent (Invitrogen) were added to each well, plates were sealed with black seal, followed by incubation at 37° C. for 10 min with gentle shaking (150 rpm). Subsequently, plates were placed at room temperature for 20-30 min. Plates were read immediately after on an Envision Fluorescence reader (Perkin Elmer) with excitation at 535 nm and emission at 630 nm. Test compound titration curves were fitted to a four-parameter sigmoidal curve after normalizing the effect of the test compound to the effect of the positive control (4 10^−4 M PEP0005/ingenol mebutate). AbsEC50 denotes the concentration of test compound producing 50% effect.

CC1=C[C@]23C(=O)[C@@H](C=C(CO)[C@@H](O)[C@]2(O)[C@H]1OC(=O)C1CC1)[C@H]1[C@@H](C[C@H]3C)C1(C)C [Compound 301, Ingenol 3-(cyclopropanecarboxylate)] was tested, and the EC50 [1] was 20 to 100 nM and the EC50 [2] was greater than 100 nM.

CC1=C[C@]23C(=O)[C@@H](C=C(CO)[C@@H](O)[C@]2(O)[C@H]1OC(=O)C1CCCCC1)[C@H]1[C@@H](C[C@H]3C)C1(C)C [Compound 302, Ingenol 3-(cyclohexanecarboxylate)] was tested, and the EC50 [3] was 150000 to 350000 nM, the EC50 [1] was less than 20 nM and the EC50 [2] was 20 to 100 nM.

CC1=C[C@]23C(=O)[C@@H](C=C(CO)[C@@H](O)[C@]2(O)[C@H]1OC(=O)C1CCC1)[C@H]1[C@@H](C[C@H]3C)C1(C)C [Compound 303, Ingenol 3-(cyclobutanecarboxylate)] showed an EC50 [1] of less than 20 nM and an EC50 [2] greater than 100 nM.

In the case of CC1=C[C@]23C(=O)[C@@H](C=C(CO)[C@@H](O)[C@]2(O)[C@H]1OC(=O)C1CCCC1)[C@H]1[C@@H](C[C@H]3C)C1(C)C [Compound 304, Ingenol 3-(cyclopentanecarboxylate)], the EC50 [1] is reported as less than 20 nM and the EC50 [2] is reported as 20 to 100 nM.

Work on CC1=C[C@]23C(=O)[C@@H](C=C(CO)[C@@H](O)[C@]2(O)[C@H]1OC(=O)C1=CCCCC1)[C@H]1[C@@H](C[C@H]3C)C1(C)C [Compound 305, Ingenol 3-(cyclohexene-1-carboxylate)] yielded an EC50 [1] of less than 20 nM and an EC50 [2] of less than 20 nM.

For COC(=O)C1(C(=O)O[C@H]2C(C)=C[C@]34C(=O)[C@@H](C=C(CO)[C@@H](O)[C@]23O)[C@H]2[C@@H](C[C@H]4C)C2(C)C)CC1 [Compound 306, Ingenol 3-(1-methoxycarbonyl-cyclopropylcarboxylate)], the EC50 [3] was greater than 350000 nM, the EC50 [1] was 20 to 100 nM and the EC50 [2] was greater than 100 nM.

Molecule CC1=C[C@]23C(=O)[C@@H](C=C(CO)[C@@H](O)[C@]2(O)[C@H]1OC(=O)C12C[C@@H]4CC1C[C@@H](C4)C2)[C@H]1[C@@H](C[C@H]3C)C1(C)C [Compound 307, Ingenol 3-(noradamantane-3-carboxylate)] has an EC50 [3] of 150000 to 350000 nM, an EC50 [1] of less than 20 nM and an EC50 [2] of less than 20 nM.

For CC1=C[C@]23C(=O)[C@@H](C=C(CO)[C@@H](O)[C@]2(O)[C@H]1OC(=O)C1(C)CCCCC1)[C@H]1[C@@H](C[C@H]3C)C1(C)C [Compound 308, Ingenol 3-(1-methyl-cyclohexanecarboxylate)], the EC50 [3] was less than 150000 nM, the EC50 [1] was less than 20 nM and the EC50 [2] was less than 20 nM.

Work on CC1=C[C@]23C(=O)[C@@H](C=C(CO)[C@@H](O)[C@]2(O)[C@H]1OC(=O)C1(C#N)CCCCC1)[C@H]1[C@@H](C[C@H]3C)C1(C)C [Compound 309, Ingenol 3-(1-cyano-cyclohexanecarboxylate)] yielded an EC50 [1] of less than 20 nM.

In the case of CC1=C[C@]23C(=O)[C@@H](C=C(CO)[C@@H](O)[C@]2(O)[C@H]1OC(=O)c1ccccc1C)[C@H]1[C@@H](C[C@H]3C)C1(C)C [Compound 310, Ingenol 3-(2-methyl-benzoate)], the EC50 [1] is reported as less than 20 nM and the EC50 [2] is reported as less than 20 nM.

CC1=C[C@]23C(=O)[C@@H](C=C(CO)[C@@H](O)[C@]2(O)[C@H]1OC(=O)c1ccc(F)cc1)[C@H]1[C@@H](C[C@H]3C)C1(C)C [Compound 311, Ingenol 3-(4-fluoro-benzoate)] gave an EC50 [3] of less than 150000 nM, an EC50 [1] of less than 20 nM and an EC50 [2] of less than 20 nM.

CC1=C[C@]23C(=O)[C@@H](C=C(CO)[C@@H](O)[C@]2(O)[C@H]1OC(=O)c1c(Cl)cccc1Cl)[C@H]1[C@@H](C[C@H]3C)C1(C)C [Compound 317, Ingenol 3-(2,6-dichloro-benzoate)] was tested, and the EC50 [1] was 20 to 100 nM and the EC50 [2] was less than 20 nM.

For CC1=C[C@]23C(=O)[C@@H](C=C(CO)[C@@H](O)[C@]2(O)[C@H]1OC(=O)c1c(Cl)cc(Cl)cc1Cl)[C@H]1[C@@H](C[C@H]3C)C1(C)C [Compound 318, Ingenol 3-(2,4,6-trichloro-benzoate)], the EC50 [1] was 20 to 100 nM and the EC50 [2] was less than 20 nM.

Molecule C=CCOc1cccc(C)c1C(=O)O[C@H]1C(C)=C[C@]23C(=O)[C@@H](C=C(CO)[C@@H](O)[C@]12O)[C@H]1[C@@H](C[C@H]3C)C1(C)C [Compound 326, Ingenol 3-(2-allyloxy-6-methyl-benzoate)] has an EC50 [3] of less than 150000 nM and an EC50 [1] of less than 20 nM.

CC1=C[C@]23C(=O)[C@@H](C=C(CO)[C@@H](O)[C@]2(O)[C@H]1OC(=O)c1c(C)cccc1O)[C@H]1[C@@H](C[C@H]3C)C1(C)C [Compound 327, Ingenol 3-(2-hydroxy-6-methyl-benzoate)] was tested, and the EC50 [3] was 150000 to 350000 nM and the EC50 [1] was less than 20 nM.

CC1=C[C@]23C(=O)[C@@H](C=C(CO)[C@@H](O)[C@]2(O)[C@H]1OC(=O)c1c(C)cccc1Cl)[C@H]1[C@@H](C[C@H]3C)C1(C)C [Compound 328, Ingenol 3-(2-chloro-6-methyl-benzoate)] was tested, and the EC50 [3] was less than 150000 nM and the EC50 [1] was less than 20 nM.

With COc1cc(C)c(C(=O)O[C@H]2C(C)=C[C@]34C(=O)[C@@H](C=C(CO)[C@@H](O)[C@]23O)[C@H]2[C@@H](C[C@H]4C)C2(C)C)c(OC)c1 [Compound 329, Ingenol 3-(2,4-dimethoxy-6-methyl-benzoate)] the EC50 [3] was less than 150000 nM and the EC50 [1] was less than 20 nM.

Work on COc1cccc(N)c1C(=O)O[C@H]1C(C)=C[C@]23C(=O)[C@@H](C=C(CO)[C@@H](O)[C@]12O)[C@H]1[C@@H](C[C@H]3C)C1(C)C [Compound 334, Ingenol 3-(2-amino-6-methoxy-benzoate)] yielded an EC50 [1] of 20 to 100 nM and an EC50 [2] of 20 to 100 nM.

For CC(=O)Nc1cccc(C)c1C(=O)O[C@H]1C(C)=C[C@]23C(=O)[C@@H](C=C(CO)[C@@H](O)[C@]12O)[C@H]1[C@@H](C[C@H]3C)C1(C)C [Compound 337, Ingenol 3-(2-acetylamino-6-methyl-benzoate)], the EC50 [1] was greater than 100 nM and the EC50 [2] was greater than 100 nM.

Work on CC1=C[C@]23C(=O)[C@@H](C=C(CO)[C@@H](O)[C@]2(O)[C@H]1OC(=O)c1c(C)cccc1NC(=O)C(C)C)[C@H]1[C@@H](C[C@H]3C)C1(C)C [Compound 338, Ingenol 3-(2-methyl-6-(2-methylpropanoylamino)-benzoate)] yielded an EC50 [1] greater than 100 nM and an EC50 [2] greater than 100 nM.

CC1=C[C@]23C(=O)[C@@H](C=C(CO)[C@@H](O)[C@]2(O)[C@H]1OC(=O)C1C(C)(C)C1(C)C)[C@H]1[C@@H](C[C@H]3C)C1(C)C [Compound 344, Ingenol 3-(2,2,3,3-tetramethylcyclopropylcarboxylate)] gave an EC50 [1] of less than 20 nM and an EC50 [2] of less than 20 nM.
